Tests used:
enterovirus strain 71 = assay: Antiviral CPE inhibition assay in mammalian cell culture, EV71; type: cell-based; settings: inhibition of viral CPE; for inhibition at 0.01 µM: 10 nM, read-out: Inh. at 10 nM, EV71; for inhibition at 0.1 µM: 100 nM, read-out: Inh. at 100 nM, EV71
[1] = tested on: coxsackie B virus strain 1; assay: Antiviral CPE inhibition assay in mammalian cell culture, Cox B1; type: cell-based; settings: for inhibition at 0.01 µM: read-out: Inh. at 10 nM, Cox B1; for inhibition at 0.1 µM: read-out: Inh. at 100 nM, Cox B1
in vivo = assay: in vivo; parameters: species or system Sprague Dawley rats; settings: male, Sprague Dawley, rat, po, 10 mg/kg
Description: 10 mg of the compound was weighed and transferred to graduated tube. Then 500 μL of DMA (5% v/v) was added, vortex mixed thoroughly and sonicated till test item was completely dissolved. Then 5 mL of PEG 200 (50% v/v) were added, and vortex mixed thoroughly. Thereafter, Sterile Water for Injection (SWFI) was added in small increments and vortex mixed thoroughly. Finally, the volume was made up to 10 mL with SWFI (45% v/v) to obtain a clear solution with final formulation strength of 1 mg/mL. […] Formulation was freshly prepared before the administration to animals. Adult healthy male Sprague Dawley rats aged 8-10 weeks were used for experimentation after a minimum 3 days of acclimation. Fasted animals were administered with test compound in recommended vehicle (5% DMA+50% PEG 200+45% SWFI) by oral route at a dose of 10 mg/kg body weight and at dose volume of 10 mL/kg body weight. Under mild isoflurane anesthesia, blood specimens were collected into pre-labeled tubes containing anticoagulant (K2EDTA—2 mg/mL blood) at different time points post dose.

[2] = tested on: coxsackie B virus strain 3; assay: Antiviral CPE inhibition assay in mammalian cell culture, Cox B3; type: cell-based; settings: for inhibition at 0.01 µM: read-out: Inh. at 10 nM, Cox B3; for inhibition at 0.1 µM: read-out: Inh. at 100 nM, Cox B3
[3] = Metabolic stability in rat liver microsomes; type: in vitro ADME; settings: 5 μM test item, 0.25 mg/mL microsomal protein
Description: (§1) Metabolic stability assay was carried out using Human/Rat liver microsomes. […] Test item/Control items were incubated with Human/Rat liver microsomes with cofactors and without cofactors. The reaction mixture (100 μL) was removed at specified time period and the reaction was stopped by addition of stop solution. The samples were extracted in presence of internal standard and were analyzed using LC-MS/MS. The percent of the test/Control item remaining after specified incubation period was calculated with respect to the peak area ratio at time 0 min. […] The reaction mixture was incubated further at 37° C. for specified incubation time points (With Cofactors: 0, 15, 30, 60 and 120 min; Without Cofactors: 0 and 120 min). 100 μL incubation samples of test items and Control items at specified incubation time points were transferred to respective tubes for sample extraction. Test and Control item specimens were extracted by Protein precipitation method. A 100 μL incubation sample at each time point was added to tubes containing 200 μL of ice-cold acetonitrile and 50 μL Haloperidol solution (0.5 μg/mL). Then the tubes were vortex mixed thoroughly and centrifuged at 10000 rpm for 10 minutes at 4° C. A clear supernatant of 200 μL of samples were submitted for LC-MS/MS analysis.

[4] = Human plasma protein binding (Rapid Equilibrium Dialysis); type: in vitro ADME; settings: pH 7.4, RED device, 37° C.
Description: (§2) Plasma protein binding study was performed using a Rapid Equilibrium Dialysis (RED) device containing dialysis membrane with a molecular weight cut-off of 8,000 Daltons. Each dialysis insert contained two chambers. The red chamber was for the plasma while the white chamber was for the buffer. Test items and Control items (Warfarin and Propranolol) were prepared at a required test concentration of 10 μM in Human/Rat plasma (pH adjusted to 7.40) using 10 mM DMSO stocks (final DMSO concentration was 0.1%). 300 μL of plasma sample was added into the sample chamber. 500 μL of buffer was added into the buffer chamber. After sealing the RED device with an adhesive film, incubation was done at 37° C. with shaking at 300 rpm for 4 h. Following incubation, an aliquot of 50 μL was removed from each well (plasma and buffer side) and diluted with equal volume of opposite matrix to nullify the matrix effect and subjected for sample extraction.
(§3) All samples were extracted by Protein Precipitation method by adding 200 μL of ice cold Acetonitrile and 50 μL of internal standard (Haloperidol at 0.1 μg/mL) solution. The tubes were vortex mixed thoroughly and centrifuged at 10000 rpm, 4° C. for 10 minutes. A clear supernatant of 200 μL of samples were submitted for LC-MS/MS analysis.

enterovirus D68 = assay: Antiviral CPE inhibition assay in mammalian cell culture, EV-D68; type: cell-based; settings: Enterovirus D, EVD68, inhibition of viral CPE; for inhibition at 0.01 µM: 10 nM, read-out: Inh. at 10 nM, EV-D68; for inhibition at 0.1 µM: 100 nM, read-out: Inh. at 100 nM, EV-D68
[5] = tested on: coxsackie B virus strain 2; assay: Antiviral CPE inhibition assay in mammalian cell culture, Cox B2; type: cell-based; settings: for inhibition at 0.01 µM: read-out: Inh. at 10 nM, Cox B2; for inhibition at 0.1 µM: read-out: Inh. at 100 nM, Cox B2
enterovirus strain 6 = assay: microbe, parasite or virus in culture; type: cell-based; settings: inhibition of viral CPE; for inhibition at 0.01 µM: 10 nM, read-out: Inh. at 10 nM, EV6; for inhibition at 0.1 µM: 100 nM, read-out: Inh. at 100 nM, EV6
[6] = tested on: coxsackie B virus strain 5; assay: Antiviral CPE inhibition assay in mammalian cell culture, Cox B5; type: cell-based; settings: for inhibition at 0.01 µM: read-out: Inh. at 10 nM, Cox B5; for inhibition at 0.1 µM: read-out: Inh. at 100 nM, Cox B5
CYP3A4 = biological target: T1, CYP3A4 (Homo sapiens, UniProt P08684); assay: In vitro CYP 3A4 enzyme inhibition in human liver microsomes by probe substrate method; type: in vitro ADME; settings: human liver microsomes 0.5 mg/mL; probe substrate Midazolam 5 μM
T1 construct: from tissue; host or cells: human liver microsomes
Description: In Vitro CYP 3A4 Enzyme Inhibition Study in Human Liver Microsomes by Probe Substrate Method
In vitro CYP3A4 enzyme inhibition assay was performed using Human liver microsomes at 0.5 mg/mL concentration. Ketoconazole was used as reference inhibitor and Midazolam was used as selective probe substrate for CYP 3A4 enzyme. Serial dilution of test/control items was prepared in potassium phosphate buffer (50 mM, pH 7.40) to obtain eight concentrations each in a 1:4 dilution pattern. The percentage of acetonitrile/DMSO was maintained at 2.5%/0.25% in 2.5× serially diluted control/test item solutions respectively. The final percentage of acetonitrile/DMSO was 1%/0.1% respectively. Intermediate solutions such as 10× working solution (5 mg/mL) of Human liver microsomal solution, 10× concentration of reference probe substrates in buffer, 5× concentrations of Cofactors (5.0 mM NADP+, 25.0 mM G-6-P, 3.0 IU/mL G-6-PDH and 10.0 mM MgCl2) were prepared in potassium phosphate buffer. The final concentration of liver microsomes in the reaction mixture was 0.5 mg/mL, cofactors was 1.0 mM NADP+, 5.0 mM G-6-P, 0.6 IU/mL G-6-PDH and 2.0 mM MgCl2. Midazolam was tested at 5 μM test concentration. 40 μL of 2.5× serially diluted test/control item solutions and 10 μL of […] liver microsomal solution were added to 96 well plate and incubated for 10 min at 37° C. with shaking condition (400 rpm) using Thermomixer. After pre incubation, 20 μL of potassium phosphate buffer, 10 μL of respective probe substrate working solution and 20 μL of cofactor mix was added.

enterovirus strain 30 = assay: Antiviral CPE inhibition assay in mammalian cell culture, EV30; type: cell-based; settings: inhibition of viral CPE; for inhibition at 0.01 µM: 10 nM, read-out: Inh. at 10 nM, EV30; for inhibition at 0.1 µM: 100 nM, read-out: Inh. at 100 nM, EV30
polio virus strain 1 = assay: organism not typed; type: cell-based; settings: for inhibition at 0.01 µM: read-out: Inh. at 10 nM, Polio 1; for inhibition at 0.1 µM: read-out: Inh. at 100 nM, Polio 1
[7] = Rat plasma protein binding (Rapid Equilibrium Dialysis); type: in vitro ADME; settings: pH 7.4, RED device, 37° C.
Description: as §2, §3

[8] = Metabolic stability in human liver microsomes; type: in vitro ADME; settings: 5 μM test item, 0.25 mg/mL microsomal protein
Description: as §1

T1 sequence (P08684 whole entry): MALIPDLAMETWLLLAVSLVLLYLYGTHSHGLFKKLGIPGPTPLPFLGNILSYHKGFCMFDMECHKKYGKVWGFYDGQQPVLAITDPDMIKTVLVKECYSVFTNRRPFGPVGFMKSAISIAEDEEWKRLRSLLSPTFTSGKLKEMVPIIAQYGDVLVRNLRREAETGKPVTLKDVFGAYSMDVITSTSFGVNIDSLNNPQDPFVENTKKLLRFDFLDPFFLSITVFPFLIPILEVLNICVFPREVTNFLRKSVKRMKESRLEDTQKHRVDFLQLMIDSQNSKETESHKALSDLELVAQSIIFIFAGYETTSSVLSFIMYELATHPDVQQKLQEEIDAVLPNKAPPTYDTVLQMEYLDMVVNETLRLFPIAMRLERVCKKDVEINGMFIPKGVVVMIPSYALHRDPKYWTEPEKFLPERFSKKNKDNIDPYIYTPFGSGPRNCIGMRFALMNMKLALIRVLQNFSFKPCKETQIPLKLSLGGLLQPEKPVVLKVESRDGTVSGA

SMILES | inhibition at 0.01 µM (enterovirus strain 71) | inhibition at 0.1 µM (enterovirus strain 71) | inhibition at 0.01 µM [1] | inhibition at 0.1 µM [1] | inhibition at 0.01 µM [2] | inhibition at 0.1 µM [2] | % remaining after incubation for 60 min, Rat microsomes [3] | inhibition at 0.01 µM (enterovirus D68) | inhibition at 0.1 µM (enterovirus D68) | inhibition at 0.01 µM [5] | inhibition at 0.1 µM [5] | inhibition at 0.01 µM (enterovirus strain 6) | inhibition at 0.1 µM (enterovirus strain 6) | inhibition at 0.01 µM [6] | inhibition at 0.1 µM [6] | IC50 (CYP3A4) | inhibition at 0.01 µM (enterovirus strain 30) | inhibition at 0.1 µM (enterovirus strain 30) | inhibition at 0.01 µM (polio virus strain 1) | inhibition at 0.1 µM (polio virus strain 1) | other results
Cc1cc(CNc2cc(C)nc3c(-c4ccc5c(c4)c(C)nn5C)c(C)nn23)ccn1 [Ex. 4, 3-(1,3-dimethyl-1H-indazol-5-yl)-2,5-dimethyl-N-[(2-methylpyridin-4-yl)methyl]pyrazolo[1,5-a]pyrimidin-7-amine] | 76% | 79% | 100% | 100% | 100% | 100% | 84.0% | 81% | 70% | 100% | 100% | 100% | 100% | 74% | 100% | > 25 µM | 100% | 100% | 100% | 100% | AUC(0-inf) (in vivo): 27400 ± 10100 ng·h/mL; AUC(0-t) (in vivo): 25200 ± 10000 ng·h/mL; AUCextrap (in vivo): 8.5 ± 5.2%; Cmax (in vivo): 2500 ± 900 ng/mL; MRT last (in vivo): 6.7 ± 0.6 h; Tmax (in vivo): 1.3 ± 0.6 h; half-life (in vivo): 6.8 ± 1.5 h; fraction unbound at 4 h, 10 μM [4]: 0.015; fraction unbound at 4 h, 10 μM [7]: 0.017; % remaining after incubation for 60 min, Human microsomes [8]: 90.0%
COc1ccc(-c2c(C)nc3c(NCc4ccnc(C)c4)cc(C)nn23)cc1OC [Ex. 1, 3-(3,4-dimethoxyphenyl)-2,6-dimethyl-N-((2-methylpyridin-4-yl)methyl)imidazo[1,2-b]pyridazin-8-amine] | 68% | 77% | 93% | 100% | 100% | 100% |  | 85% | 83% | 100% | 100% | 100% | 100% | 80% | 100% | 23.1 µM | 100% | 100% | 100% | 100% | 
Cc1cc(NCc2ccnc(F)c2)n2nc(C)c(-c3ccc4c(c3)c(C)nn4C)c2n1 [Ex. 3, 3-(1,3-dimethyl-1H-indazol-5-yl)-2,5-dimethyl-N-[(2-fluoropyridin-4-yl)methyl]pyrazolo[1,5-a]pyrimidin-7-amine] | 82% | 81% | 68% | 100% | 100% | 100% | 99.4% | 76% | 70% | 100% | 100% | 88% | 100% | 48% | 100% | > 25 µM | 100% | 100% | 100% | 100% | fraction unbound at 4 h, 10 μM [4]: 0.022; fraction unbound at 4 h, 10 μM [7]: 0.059; % remaining after incubation for 60 min, Human microsomes [8]: 96.1%
COc1ccc(-c2c(C)nc3c(NCc4ccnc(F)c4)cc(C)nn23)cc1OC [compound 2, 3-(3,4-dimethoxyphenyl)-N-((2-fluoropyridin-4-yl)methyl)-2,6-dimethylimidazo[1,2-b]pyridazin-8-amine] | 76% | 75% | 100% | 100% | 100% | 100% |  | 73% | 68% | 100% | 100% | 100% | 100% | 84% | 100% | > 25 µM | 100% | 100% | 100% | 100% | 
COc1ccc(-c2c(C)nn3c(NCc4ccncc4)cc(C)nc23)cc1OC [X, 3-(3,4-dimethoxyphenyl)-2,5-dimethyl-N-(pyridin-4-ylmethyl)pyrazolo[1,5-a]pyrimidin-7-amine, reference compound] | 82% | 82% | 100% | 100% | 100% | 100% |  | 86% | 86% | 100% | 100% | 100% | 100% | 100% | 100% | 0.97 µM | 100% | 100% | 100% | 100% | 
